{
  "source": "paper PMC8008885",
  "about": "(Journal of Enzyme Inhibition and Medicinal Chemistry, 2021)",
  "key": {"[1]": {"experiment": "Pharmacokinetics after intravenous and oral administration to SD rats", "format": "in vivo, Sprague-Dawley (SD) male rats", "details": "rat, 10 mg/kg; for Kp at 2 h: brain/plasma, read-out: Brain-to-plasma (B/P) ratio at 2 h; for half-life: read-out: Terminal half-life", "source_text": "It is well known that the blood–brain barrier (BBB) is a key obstacle impeding the entry of drugs into the brain."}, "YAC128 mice": {"test_system": "YAC128 mice", "experiment": "Toxicity on administration to YAC128 mice", "format": "in vivo", "details": "HD transgenic (YAC128) mice", "protocol": "(§1) YAC128 mice were bred with females from their background strain (B6CBAFI/J), and offspring were genotyped using PCR as previously described. All mice were weighed at 3 weeks of age and equally distributed according to weight and percentage within each cohort. […] The biochemical and behavioural/neuropathological symptoms of mice were determined after 4 weeks of drug administration. These procedures were performed in accordance with Guide for the Care and Use of Laboratory Animals guidelines. The animal protocol was approved by IACUC (Institutional Animal Care and Use Committee) in Hanyang University, Ansan, Republic of Korea."}, "striatum of YAC128 mice": {"test_system": "striatum of YAC128 mice", "experiment": "Histology and immunohistochemistry of the striatum of YAC128 mice (Nissl, H3K9me3, DARPP-32, calbindin, DAPI, SUV39H1)", "format": "in vivo, mouse", "protocol": "as §1\nImmunofluorescence staining and confocal microscopy was used to determine the trimethylated-histone H3 (Lys9) (H3K9me3) (Millipore, Billerica, MA) (1:1000). The procedures were performed as previously described. The specimens were incubated for 1 h with Alexa Fluor 594 goat anti-rabbit antibody (abcam, Cambridge, UK; 1:400) after incubation of the primary antibody. Images were analysed using an A1 Nikon confocal laser scanning microscope (Nikon, Tokyo, Japan).\nDARPP-32 is a dopamine- and cAMP-regulated neuronal phosphoprotein, which plays an important role in dopamine neurotransmission. Its expression is severely impaired in the striatum of YAC128 mice compared with that of WT mice.\nWhite nodes are interacting genes with the seed genes identified by the network analysis algorithm of IPA. The network represented dense connections between the epigenome associated with chromatin modification (such as Suv39h1, Mecp2, KDM5c, etc.), transcription regulation (such as Elk1, Foxp4, Hoxa6, Dhx9, etc.), metabolic process (such as Acsl4, Fbp2, Nat2, etc.), and signal transduction pathways (such as Cnksr2, Dusp9, Rab9, etc.) (Figure 8(d)). Especially, SUV39H1, a histone H3K9 methyltransferase, was closely associated with signalling pathways and other modules (Figure 8(d)). We further verified that SUV39H1 immunoreactivity was markedly elevated in YAC128 mice (Figure 8(e))."}, "[2]": {"test_system": "STHdhQ7/7 (wild type) cells", "experiment": "Cell viability MTT assay", "format": "cell-based", "details": "24 h, concentration range 1–100 µM", "protocol": "Cell viability was quantified using MTT assay (Sigma, St. Louis, MO, M2128). In brief, cells were cultured in each well of 96-well plates with varying concentrations of compounds for 24 h. Following incubation of cells in each well with MTT (0.5 mg/ml) for 4 h, the culture supernatant was discarded. Cells were washed with PBS three times, and the insoluble formazan product dissolved in DMSO. The optical density (OD) of each culture well was measured using as ELISA reader at 570 nm. The OD570 in control cells was taken as 100% viability.\nNext, we evaluated the inhibitory activity of our compound against SETDB1 enzyme by comparing with a well-known methyltransferase inhibitor […] using chemo-luminescence assay (Figure S1a)."}, "[3]": {"details": "male, Sprague-Dawley, plasma, intravenous"}, "[4]": {"details": "male, Sprague-Dawley, plasma, oral"}, "[5]": {"details": "male, Sprague-Dawley, intravenous, plasma"}, "[6]": {"details": "male, Sprague-Dawley, oral, plasma"}},
  "note": "Like-named read-outs stand apart in the source and are kept apart here.",
  "data": [
    {"smiles": "C=CCOc1cccc2nc(N3CCCC3)ccc12", "note": "[APQ, 5-allyloxy-2-(pyrrolidin-1-yl)quinoline]", "values": [
      {"measurement": "Kp at 2 h", "setting": "[1]; male, Sprague-Dawley, intravenous", "result": 4.18},
      {"measurement": "Kp at 2 h", "setting": "[1]; male, Sprague-Dawley, oral", "result": 0.44},
      {"measurement": "concentration at 2 h", "setting": "[1]; male, Sprague-Dawley, brain, intravenous, read-out: Brain concentration at 2 h", "result": 407, "unit": "ng/mL"},
      {"measurement": "concentration at 2 h", "setting": "[1]; male, Sprague-Dawley, brain, oral, read-out: Brain concentration at 2 h", "result": "3.7 ± 1.1", "unit": "ng/mL"},
      {"measurement": "MRT", "setting": "[1]; [3]", "result": 1.6, "unit": "h"},
      {"measurement": "clearance", "setting": "[1]; [3]", "result": "183 ± 26.1", "unit": "mL/min/kg"},
      {"measurement": "concentration at 8 h", "setting": "[1]; [3]", "result": 20, "unit": "ng/mL"},
      {"measurement": "concentration at 2 h", "setting": "[1]; male, Sprague-Dawley, plasma, intravenous, read-out: Plasma concentration at 2 h", "result": 100, "unit": "ng/mL"},
      {"measurement": "half-life", "setting": "[1]; [3]", "result": "2.55 ± 0.101", "unit": "h"},
      {"measurement": "Vd", "setting": "[1]; male, Sprague-Dawley, plasma, intravenous, read-out: Vss", "result": "25.6 ± 5.2", "unit": "L/kg"},
      {"measurement": "bioavailability", "setting": "[1]; male, Sprague-Dawley, plasma, oral vs intravenous, read-out: F (bioavailability)", "result": 6.7, "unit": "%"},
      {"measurement": "Cmax", "setting": "[1]; [4]", "result": "40 ± 10", "unit": "ng/mL"},
      {"measurement": "concentration at 8 h", "setting": "[1]; [4]", "result": 0, "unit": "ng/mL"},
      {"measurement": "Tmax", "setting": "[1]; male, Sprague-Dawley, plasma, oral, median (range)", "result": 1, "unit": "h"},
      {"measurement": "concentration at 2 h", "setting": "[1]; male, Sprague-Dawley, plasma, oral, read-out: Plasma concentration at 2 h", "result": 10, "unit": "ng/mL"},
      {"measurement": "half-life", "setting": "[1]; [4]", "result": "1.58 ± 0.223", "unit": "h"},
      {"measurement": "AUC(0-inf)", "setting": "[1]; [5]", "result": 923, "unit": "ng·h/mL"},
      {"measurement": "AUC(0-t)", "setting": "[1]; [5]", "result": 858, "unit": "ng·h/mL"},
      {"measurement": "AUC(0-inf)", "setting": "[1]; [6]", "result": 61.7, "unit": "ng·h/mL"},
      {"measurement": "AUC(0-t)", "setting": "[1]; [6]", "result": 60.7, "unit": "ng·h/mL"},
      {"measurement": "Ae (excreted amount)", "setting": "[1]; intravenous", "result": 0.00, "unit": "%"},
      {"measurement": "Brain concentration at 2 h", "setting": "[1]; intravenous", "result": "406.6 ± 81.3", "unit": "ng/mL"},
      {"measurement": "Plasma concentration at 2 h", "setting": "[1]; intravenous", "result": "100 ± 10", "unit": "ng/mL"},
      {"measurement": "Ae (excreted amount)", "setting": "[1]; oral", "result": 0.00, "unit": "%"},
      {"measurement": "toxicity", "setting": "YAC128 mice", "result": "minimal toxicity"},
      {"measurement": "DARPP-32 expression in the striatum", "setting": "striatum of YAC128 mice", "result": "considerably improved"},
      {"measurement": "immunoreactive intensity of calbindin stained neurons", "setting": "striatum of YAC128 mice", "result": "increased"},
      {"measurement": "nuclei size of medium spiny neurons (DAPI)", "setting": "striatum of YAC128 mice", "result": "restores"},
      {"measurement": "H3K9me3 immunoreactivity in striatal neurons", "setting": "striatum of YAC128 mice; comparable to the level of WT controls", "result": "significantly reduced"},
      {"measurement": "level of SUV39H1 (immunoreactivity) in striatal neurons", "setting": "striatum of YAC128 mice; similar to the level in WT mice", "result": "significantly reduced"},
      {"measurement": "neuronal atrophy / size of striatal medium spiny neurons (Nissl staining)", "setting": "striatum of YAC128 mice; striatum", "result": "significantly restored"},
      {"measurement": "cytotoxicity (cell viability, MTT)", "setting": "[2]", "result": "did not show any cytotoxicity"}
    ]}
  ]
}
